Entries after “also recorded” stand apart in the source; their conditions may differ. Counter-ions that a name gives are not always drawn. Like-named read-outs stand apart in the source and are kept apart here.
How the values were obtained:
[1] = system: rat ‘resident-intruder’ model of agitation or aggression; test: Rat resident-intruder model of agitation or aggression; assay type: in vivo; details: for sublingual vs intravenous route: duration of the behavioral indices of aggression and agitation: doses of 1 and 1.5 μg/kg, student t-test
Description: The resident-intruder model is an established preclinical model of aggression and agitation, and allows spontaneous and natural expression of both offensive aggression/agitation and defensive behavior in laboratory rodents in a semi natural laboratory setting.
Animals: 12-13 week old male Wistar rats weighing 380-400 g were used as resident males. 7-8 weeks old male rats weighing 280-300 g were used as the “intruder”. Resident rats were housed with female rats for 8 days to establish territoriality. The intruder rats were housed in groups of 3 with other male rats of similar age/body weight. All animals were maintained in a controlled environment with 22±3° C. temperature, 50±20% humidity, a light/dark cycle of 12 hours each and 15-20 fresh air changes per hour and had access to food and water ad-libitum. All animal experiments were conducted in accordance with the guidelines of the Committee for the Purpose of Control and Supervision of Experiments on Animals (CPCSEA), Government of India the Association for Assessment and Accreditation of Laboratory Animal Care international (AAALAC).
Dilutions were prepared fresh every day prior to dosing using 0.9% normal saline from the formulation 4 for the entire study.
Experimental Procedure: Following acclimatization for a period of 3-5 days, each resident male rat was housed with a female rat for 8 days. On day 8, basal aggression in the resident males was tested by exposing them to an “intruder rat” for 10 minutes. […] These animals were then randomized using body weight stratification method. […] Animals were housed with the female rat for an additional day. On day 9, the resident animal was paired with intruder animal of an appropriate bodyweight such that the body weight of the resident was always higher than the intruder. This was to facilitate dominant, aggressive behavior in the resident animals. After randomization, animals were assigned a permanent number. Cages were identified by cage cards indicating the study number, study code, group number, sex, dose, cage number and animal number details.
For sublingual dosing, the rats were held in one hand and using a blunt spatula the tongue was moved to one side of the mouth. […] Diazepam was used as a reference compound and was dosed intraperitoneally. Vehicle controls were treated with 0.9% saline administered sublingually or intravenously.
The behavior of the resident rat was recorded using an overhead video camera for 15 minutes and offline behavioral analysis was done using the Noldus Ethovision XT software. To distinguish the resident rat from the intruder rat in the video recording, the intruder rat was marked with non-toxic paint.
Statistical Analysis: Statistical analysis was performed using validated statistical software (GraphPad Prism 6). Data is represented as Mean±SEM. One-way ANOVA (analysis of variance) followed by “Dunnett's Multiple Comparison Test” at 95% confidence interval was applied for comparison of the relevant groups. p<0.05 was considered significant.

[2] = rat, in vivo
Experimental: Objective: To estimate Dexmedetomidine levels in rat plasma samples obtained after dosing animals via intravenous and sublingual routes at doses of 0.5, 1, 1.5 and 3 μg/kg.
Blood was collected under mild isoflurane anesthesia from the retro-orbital plexus at 0, 5, 15, 30, 60 and 120 minutes post dosing. Plasma was separated and stored at −80° C. until Dexmedetomidine concentration was analyzed.
Analytical Methods: Samples were analysed by using Agilent 1290 Infinity II HPLC system coupled to AB Sciex Triple Quad instrument (API-5000). Chromatographic separation was done using Agilent Zorbax Eclipse plus C18 column (50*2.1 mm, 1.8 μm) in gradient mode. The mobile phase consisted of 10 mM Ammonium Formate with pH 3.5 (Mobile phase A) and 100% Acetonitrile (Mobile phase B). The column temperature was 40° C. and flow rate was 0.35 mL/min. The MS instrument was operated in the positive mode (ESI+). For analysis, 2 μL of sample was injected into the LC-MS/MS instrument. Auto sampler temperature was 7° C.
WCX SPE 96 well plate was used for sample preparation. 50 μl of plasma sample was used for extraction. Along with study samples, one set of linearity and two sets of quality controls (QC) were also processed.
Sample pretreatment: To 50 μl of plasma, 10 μl of tolbutamide working solution was added (Tolbutamide 250 ng/ml). After mixing, […], of buffer solution (10 mM Ammonium Formate pH 3.5) was added. Contents were vortex mixed and loaded to preconditioned SPE plate.
After placing the cartridges in the negative pressure SPE unit, they were conditioned by passing 200 μl of 100% methanol followed by 200 μl of water. The pretreated plasma samples were then loaded to the pre-conditioned cartridges.
After loading pretreated plasma samples, cartridges were washed with 100 μl of 0.1% ammonia solution. Finally, bound analyte was eluted with 50 μl of 0.1% formic acid in acetonitrile. This step was repeated twice for complete elution. Final eluent volume was 100 μL. To 100 μL of eluent, 50 μL of 10 mM ammonium formate (pH 3.5) was added samples were vortex mixed and transferred to a 96-well HPLC sample plate (Agilent) and submitted for LC-MS/MS analysis. For LC-MS/MS analysis, 2 μL of sample was injected. Calibration standards and QCs were processed the same way as done for study samples.
The calibration curve was fitted by linear regression. The concentrations in the QC and test samples (pg/mL) were obtained from the Analyst software based on the calibration curve. […] 2) The correlation coefficient (r) of the calibration curve must be greater than or equal to 0.99. 3) At least two-thirds (4 out of 6) QC samples must be within ±20% relative error (accuracy)

CN1C(=O)CN=C(c2ccccc2)c2cc(Cl)ccc21 [Diazepam]
indices of aggressive and agitated behaviors ([1]; 3 mg/kg, i.p., FIG. 1A-1D): significant reduction in all the indices of aggressive and agitated behaviors | attacking behavior / latency to attack ([1]; 3 mg/kg, i.p., FIGS. 2A and 2B): complete lack of attacking behavior | frequency and duration of neutral behaviors ([1]; 3 mg/kg, ip): significantly reduced the frequency and duration of all neutral behaviors

Cc1cccc([C@H](C)c2cnc[nH]2)c1C [Dexmedetomidine hydrochloride, (S)-4-[1-(2,3-Dimethylphenyl)ethyl]-3H-imidazole]
doses that effectively reduced the behavioral indices of aggression and agitation without majorly impacting the neutral behaviors ([1]; administered sublingually or intravenously, doses used 0.5-3 μg/kg): 1 to 1.5 µg/kg | various indices of agitation and aggression ([1]; conclusion, rat resident intruder model): effectively reduces various indices of agitation and aggression | sublingual vs intravenous route: duration of the behavioral indices of aggression and agitation [1]: correlates with intravenously administered Dexmedetomidine hydrochloride | sublingual vs intravenous route: duration of the behavioral indices of aggression and agitation ([1]; listed as dexmedetomidine hydrochloride): No significant differences (i.e. similar effect via sublingual | latency to attack the intruder rat, significance vs vehicle controls ([1]; intravenous, 3 μg/kg, FIG. 2B): significant compared to vehicle controls | neutral behavior: immobile/quiet time ([1]; intravenous, 3 μg/kg, FIG. 3F): significantly increased the immobile/quiet time | neutral behaviors: grooming and exploration compared to vehicle controls ([1]; intravenous, 0.5-3 μg/kg, except at a dose of 3 μg/kg): did not significantly affect grooming and exploration | indices of aggressive and agitated behaviors ([1]; intravenous, 0.5-3 μg/kg, FIG. 1C, 1D): reduced all the indices of aggressive and agitated behaviors | anogenital sniffing, biting and attacking compared to vehicle controls ([1]; intravenous, doses above 0.5 μg/kg, FIG. 1C, 1D): significant reduction | latency to attack the intruder rat compared to the vehicle control group ([1]; prior treatment, dose related manner, route not stated): significant increase in the latency to attack the intruder rat | neutral behavior: exploration compared to vehicle controls ([1]; sublingual, 1.5 μg/kg & 3 μg/kg, FIGS. 3A and 3B): reduction in exploration | frequency and duration of aggressive and agitated behaviors (anogenital sniffing, chasing, biting, attacking) ([1]; sublingual, 0.5-3 μg/kg, 15 minutes prior to testing, FIG. 1A, 1B): reduced the frequency and duration of these behaviors in a dose related manner; also recorded: dose related reduction | latency to attack the intruder rat ([1]; sublingual, 0.5-3 μg/kg, dose related, FIG. 2A): increase in the latency to attack the intruder rat | neutral behaviors: grooming and exploration compared to vehicle controls ([1]; sublingual, 0.5-3 μg/kg, except exploration at 1.5 and 3 μg/kg, FIGS. 3A and 3B): No significant changes | chasing and attacking compared to vehicle control group ([1]; sublingual, 0.5-3 μg/kg, FIG. 1A, 1B): Significant reduction | neutral behavior: immobile/quiet time compared to vehicle controls ([1]; sublingual, 0.5-3 μg/kg, FIG. 3C): no significant effect | neutral behavior of animals ([1]; sublingually administered): No changes were observed | Plasma concentrations between 15 to 30 min [2]: 43±13.5 to 90±12.1 | effect of dose on plasma concentrations [2]: dose-related effect on plasma concentrations | plasma concentrations between 15 to 30 min [2]: 27±7.1-114±1.7 | effect of dose on plasma concentrations ([2]; iv): dose-dependent effect on plasma concentrations
